Tested on: Felidae T1R1/T1R3 receptor
Assay: Calcium imaging (fura-2, F340/F380) of HEK293 cells expressing T1R1/T1R3 receptor and Gα15, responses to taste stimuli
Type: cell-based, cat
Description: Provided herein are methods for determining if two or more test compounds have an augmenting effect on the T1R1/T1R3 receptor where each test compound alone elicits a small or moderate response comprising contacting the receptor with the test compounds, and measuring the response of the receptor to the test compounds, wherein the compounds have an augmenting effect on the receptor if the response of the receptor to the compounds in a mixture in which each compound is presented at a given concentration is greater than the response to either one of the compounds alone at its given respective concentration. Responses are measured in terms of the Fluorescence Ratio F340/F380 as detailed in the Examples. Responses are gauged by comparing each response with the response to 100 μM isoproterenol, the positive control which activates the cell through Gα15. A null response is less than 10% of the control response. A small or moderate response is equal to or greater than 10% of the control response. In some preferred embodiments, the T1R1/T1R3 receptor is a Felidae T1R1/T1R3 receptor
b. Cell Transfection: HEK293 cell lines that stably express Gα15 were grown and maintained at 37° C. DMEM supplemented with 10% FBS and MEM nonessential amino acids (Invitrogen); the medium for Gα15 transfected cells contains 5 μg/ml blasticidin (Invitrogen). Cells were co-transfected with expression constructs by using Lipofectamine 2000 reagent (Invitrogen). T1R1/T1R3 transfected cells were selected using Zeocin (100 μg/ml) and hygromycin (400 μg/ml).
c. Establishing stable cell lines: Transfected cells were maintained in antibiotic selective medium until colonies appear. Single colonies were identified two weeks after transfection and were examined for RNA expression by RT-PCR and for protein expression by immunohistochemistry. Positive colonies confirmed by RT-PCR and immunohistochemistry were stocked in liquid nitrogen as stable cell lines expressing T1R1/T1R3.
a. In vitro assays: HEK293 cells' responses to taste stimuli were measured using calcium imaging techniques (Nelson et al. 2001, Li et al. 2002, Gomez et al. 2005). Transfected cells were loaded with fura-2 containing buffer for one hour. Coverslips with fura-2 loaded cells were then placed in a recording chamber and continuously superfused with Hank's salt solution (Nelson et al. 2001). Enhancement solutions were applied by switching the superfusion, which allowed a complete change of bath solutions within 5-20 seconds, based on preliminary experiments with fluorescent dye for each setup and recording chamber. Calcium imaging recordings were performed using Imagemaster-5 multi-wavelength quantitative fluorescence imaging system (Photon Technology International, Inc.). Cells were illuminated with UV light at two wavelengths (340 or 380 nm). Intracellular calcium activity was computed from the ratio of emitted light from the 340/380 nm wavelengths. Excitation light was shuttered between acquisitions, with exposure times being minimized (typically 50-100 msec). Images are normally acquired every 2-5 sec. Using these conditions, cells remain viable in the recording setup for more than 2 h without significant effects of dye bleaching or baseline shifts. The use of ratiometric imaging reduces the problems associated with fluorescence quenching or dye loss that can generate artifacts using single-wavelength dyes.
b. Amino acid stimulation of the HEK transfected cell lines: In a typical experiment to determine if there is an interaction at the receptor between two compounds, the response (peak height of intracellular calcium concentration) to each compound as well as a mixture of the two compounds is measured. If each compound alone elicits a small or moderate response, it will be necessary to compare responses to single compounds with a mixture in which each compound is presented at its initial test concentration. In this manner we can determine if the enhancement is greater than simple additivity. […]

NCCCC[C@H](N)C(=O)O [L-lysine]
response of HEK293 cells (calcium imaging) (FIG. 4, 5 cells, 25 mM L-lysine alone): null responses
response of HEK293 cell (calcium imaging) (FIG. 6, 25 mM L-lysine alone): null response (A null response is less than 10% of the control response)

O=P([O-])([O-])OP(=O)([O-])O.[Na+].[Na+].[Na+] [sodium pyrophosphate, trisodium pyrophosphate]
response of HEK293 cell (calcium imaging) (FIG. 3, 10 mM sodium pyrophosphate presented singly): null responses
response of HEK293 cell (calcium imaging) (FIG. 3, 20 mM sodium pyrophosphate presented singly): null responses
response of HEK293 cells (calcium imaging) (FIG. 4, 5 cells, 20 mM sodium pyrophosphate alone): null responses
response of HEK293 cell (calcium imaging) (FIG. 6, 20 mM sodium pyrophosphate alone): weak response

C[C@H](N)C(=O)O [L-alanine]
response of HEK293 cell (calcium imaging) (FIG. 5, 25 mM L-alanine alone): null responses

O=C(O)[C@@H]1CCCN1 [L-proline]
response of HEK293 cell (calcium imaging) (FIG. 1, 25 mM L-proline alone, vs 100 μM isoproterenol positive control): null responses
response of HEK293 cells (calcium imaging) (FIG. 2, 3 cells, 50 mM L-proline alone): null responses
response of HEK293 cell (calcium imaging) (FIG. 3, 50 mM L-proline presented singly): null responses

N[C@@H](Cc1c[nH]cn1)C(=O)O [L-histidine]
augmentation of response by pyrophosphate (FIG. 4, 5 cells): not augmented
response of HEK293 cells (calcium imaging) (FIG. 4, 5 cells, 25 mM L-histidine alone): null responses
response of HEK293 cell (calcium imaging) (FIG. 5, 25 mM L-histidine alone): null responses

Source: patent publication US20130209625A1, “METHODS AND COMPOSITIONS FOR STIMULATING A FELIDAE T1R RECEPTOR” (MONELL CHEMICAL SENSES CENTER, priority 2010, published 2013)
